Some test systems named below: HCT-116 colon; SR leukemia; MALME-3M melanoma; OVCAR-5 ovarian; NCI-H522 lung; SNB-19 CNS; MDA-MB-435; SW-620 colon; SK-MEL-5 melanoma; MOLT-4 leukemia; CCRF-CEM leukemia; OVCAR-3 ovarian; RPMI-8226 leukemia; SF-268 CNS; RXF 393 renal; MCF7 breast; OVCAR-4 ovarian; DU-145 prostate; MDA-MB-231 breast.
What all share (experiment): DTP human tumour cell line panel, 48 h

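Cultured in 96-well plates, cells were exposed to test compound for 48 hours across five concentrations. The concentration for full growth arrest is given as TGI.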

In the case of `O=C(CCNC(=O)OCc1ccccc1)OCCCNC(=O)OCc1ccccc1`, the concentration for total growth inhibition (TGI) in the experiment on HCT-116 colon, in the experiment on SR leukemia, with MALME-3M melanoma, in the experiment with OVCAR-5 ovarian, in the experiment with NCI-H522 lung and in the experiment on SNB-19 CNS was over 100 µM throughout. For the same molecule, the TGI in the experiment with MDA-MB-435, with SW-620 colon, in the experiment with SK-MEL-5 melanoma, in the experiment with MOLT-4 leukemia, with CCRF-CEM leukemia and with OVCAR-3 ovarian was over 100 µM each time. Also, the concentration for total growth inhibition (TGI) in the experiment with RPMI-8226 leukemia, in the experiment with SF-268 CNS, with RXF 393 renal, in the experiment on MCF7 breast, in the experiment with OVCAR-4 ovarian and in the experiment with DU-145 prostate was over 100 µM in each case. In the experiment with MDA-MB-231 breast, the TGI is over 100 µM.

In the case of `CCCC/C=C1\CCC(CN2CCOCC2)C1=O` (stereo not given), the concentration for total growth inhibition (TGI) was found to be 5.55 µM in the experiment with HCT-116 colon; 5.23 µM in the experiment on SR leukemia; 4.95 µM in the experiment on MALME-3M melanoma; 32.9 µM in the experiment with OVCAR-5 ovarian; 2.17 µM with NCI-H522 lung; 29.6 µM with SNB-19 CNS. In addition, the TGI in the experiment on MDA-MB-435 stood at 23 µM; in the experiment on SW-620 colon it was 5.13 µM; with SK-MEL-5 melanoma, 26.9 µM; in the experiment on MOLT-4 leukemia, 10.7 µM; in the experiment on CCRF-CEM leukemia, 3.35 µM; with OVCAR-3 ovarian, 19.3 µM. Moreover, the TGI with RPMI-8226 leukemia is 2.59 µM; in the experiment with SF-268 CNS, 36.3 µM; with RXF 393 renal it was 2.89 µM; in the experiment on MCF7 breast, 4.93 µM; with OVCAR-4 ovarian, 36.1 µM; in the experiment on DU-145 prostate, 32.8 µM. Besides, the TGI with MDA-MB-231 breast is 14.5 µM.

Regarding `CCOC(=O)c1c(N2CCOCC2)[nH]c(=O)c(C(c2ccc(N(C)C)cc2)c2c(O)c(C(=O)OCC)c(N3CCOCC3)[nH]c2=O)c1O`, the total growth inhibition concentration (TGI) with HCT-116 colon, in the experiment with SR leukemia, with MALME-3M melanoma, in the experiment on OVCAR-5 ovarian, in the experiment on NCI-H522 lung and in the experiment with SNB-19 CNS was over 100 µM each time. Further, the concentration for total growth inhibition (TGI) in the experiment on MDA-MB-435, in the experiment on SW-620 colon, in the experiment on SK-MEL-5 melanoma, in the experiment on MOLT-4 leukemia, in the experiment on CCRF-CEM leukemia and in the experiment with OVCAR-3 ovarian was over 100 µM in each case. For the same molecule, the TGI in the experiment with RPMI-8226 leukemia, with SF-268 CNS, in the experiment with RXF 393 renal, in the experiment on MCF7 breast, in the experiment on OVCAR-4 ovarian and in the experiment with DU-145 prostate was over 100 µM each time. The molecule also yielded a total growth inhibition concentration (TGI) with MDA-MB-231 breast of over 100 µM.

Consider `O=C1c2ccccc2C(=O)c2[nH]c(=O)c(/C=N/Nc3ccc([N+](=O)[O-])cc3)nc21`, for which the TGI is over 73.1 µM with HCT-116 colon; over 65.2 µM in the experiment on SR leukemia; 2.78 µM with MALME-3M melanoma; over 76.5 µM in the experiment on OVCAR-5 ovarian; 13 µM in the experiment on NCI-H522 lung; over 100 µM with SNB-19 CNS. Also, the concentration for total growth inhibition (TGI) in the experiment with MDA-MB-435 was 3.99 µM; in the experiment with SW-620 colon, over 45.4 µM; with SK-MEL-5 melanoma it was 2.82 µM; in the experiment with MOLT-4 leukemia, over 78.6 µM; with CCRF-CEM leukemia it was over 100 µM; in the experiment on OVCAR-3 ovarian, over 25.3 µM. Further, the concentration for total growth inhibition (TGI) with RPMI-8226 leukemia was over 61.2 µM; in the experiment with SF-268 CNS it was 29.6 µM; with RXF 393 renal it was 33.4 µM; with MCF7 breast, over 44 µM; in the experiment with OVCAR-4 ovarian, over 75.5 µM; with DU-145 prostate, 2.88 µM. Moreover, in the experiment with MDA-MB-231 breast, the TGI is over 51.6 µM.

Regarding `Cc1ccc2c(c1)C(=O)C1(C2)Cc2ccc(C)cc2C1=O`, the total growth inhibition concentration (TGI) in the experiment with HCT-116 colon, in the experiment with SR leukemia, in the experiment on MALME-3M melanoma, in the experiment with OVCAR-5 ovarian, with NCI-H522 lung and with SNB-19 CNS was over 100 µM throughout. The TGI in the experiment on MDA-MB-435, with SW-620 colon, with SK-MEL-5 melanoma, with MOLT-4 leukemia, with CCRF-CEM leukemia and with OVCAR-3 ovarian was over 100 µM each time. The TGI in the experiment with RPMI-8226 leukemia, with SF-268 CNS, in the experiment on RXF 393 renal, with MCF7 breast, in the experiment with OVCAR-4 ovarian and in the experiment on DU-145 prostate was over 100 µM throughout. In the experiment with MDA-MB-231 breast, the concentration for total growth inhibition (TGI) was over 100 µM.

Regarding `COC(=O)c1c(C)cccc1C1CN=NC12Cc1c(C)cccc1C2=O` (stereo not given), the TGI was over 100 µM with HCT-116 colon; over 100 µM in the experiment with SR leukemia; over 100 µM in the experiment on MALME-3M melanoma; over 100 µM in the experiment with OVCAR-5 ovarian; 91.7 µM in the experiment on NCI-H522 lung; over 100 µM in the experiment with SNB-19 CNS. In addition, the TGI in the experiment with MDA-MB-435, in the experiment on SW-620 colon, in the experiment with SK-MEL-5 melanoma, in the experiment on MOLT-4 leukemia, in the experiment on CCRF-CEM leukemia and with OVCAR-3 ovarian was over 100 µM throughout. In addition, the TGI with RPMI-8226 leukemia, in the experiment on SF-268 CNS, with RXF 393 renal, in the experiment on MCF7 breast, with OVCAR-4 ovarian and in the experiment on DU-145 prostate was over 100 µM each time. This molecule showed a concentration for total growth inhibition (TGI) with MDA-MB-231 breast of over 100 µM.

As for `COC(=O)c1ccc(/C=N/c2cc(C)nn2-c2ccccc2)cc1`, the total growth inhibition concentration (TGI) with HCT-116 colon, in the experiment on SR leukemia, with MALME-3M melanoma, with OVCAR-5 ovarian, in the experiment on NCI-H522 lung and in the experiment on SNB-19 CNS was over 100 µM throughout. The total growth inhibition concentration (TGI) is 96.6 µM with MDA-MB-435; over 100 µM with SW-620 colon; 83.2 µM in the experiment on SK-MEL-5 melanoma; over 100 µM in the experiment on MOLT-4 leukemia; over 100 µM with CCRF-CEM leukemia; 38.7 µM in the experiment on OVCAR-3 ovarian. Further, the TGI with RPMI-8226 leukemia, in the experiment on SF-268 CNS, with RXF 393 renal, in the experiment on MCF7 breast, in the experiment on OVCAR-4 ovarian and in the experiment with DU-145 prostate was over 100 µM throughout. This molecule registered a total growth inhibition concentration (TGI) with MDA-MB-231 breast of over 100 µM.

In the case of `Cc1nc(SCC(=O)Nc2ccccc2)c2sc(=S)n(-c3ccccc3)c2n1`, the TGI in the experiment with HCT-116 colon, in the experiment on SR leukemia, with MALME-3M melanoma, in the experiment with OVCAR-5 ovarian, in the experiment with NCI-H522 lung and in the experiment with SNB-19 CNS was over 10 µM throughout. Besides, the total growth inhibition concentration (TGI) with MDA-MB-435, with SW-620 colon, in the experiment with SK-MEL-5 melanoma, with MOLT-4 leukemia, in the experiment with CCRF-CEM leukemia and with OVCAR-3 ovarian was over 10 µM each time. Further, the total growth inhibition concentration (TGI) in the experiment on RPMI-8226 leukemia, in the experiment on SF-268 CNS, in the experiment with RXF 393 renal, with MCF7 breast, with OVCAR-4 ovarian and in the experiment on DU-145 prostate was over 10 µM each time. Further, the total growth inhibition concentration (TGI) with MDA-MB-231 breast was over 10 µM.

As for `COc1ccc(-c2c(N)n(-c3cc(OC)cc(OC)c3)c(=O)c3cc([N+](=O)[O-])ccc23)cc1`, the total growth inhibition concentration (TGI) with HCT-116 colon is over 100 µM; in the experiment on SR leukemia, over 100 µM; in the experiment with MALME-3M melanoma, over 100 µM; in the experiment with OVCAR-5 ovarian, over 100 µM; in the experiment on NCI-H522 lung, over 100 µM; in the experiment with SNB-19 CNS, 99.5 µM. Besides, the TGI in the experiment on MDA-MB-435, in the experiment on SW-620 colon, in the experiment on SK-MEL-5 melanoma, in the experiment on MOLT-4 leukemia, with CCRF-CEM leukemia and in the experiment on OVCAR-3 ovarian was over 100 µM in each case. The TGI with RPMI-8226 leukemia, in the experiment on SF-268 CNS, in the experiment on RXF 393 renal, in the experiment with MCF7 breast, with OVCAR-4 ovarian and with DU-145 prostate was over 100 µM in each case. This molecule also had a TGI in the experiment on MDA-MB-231 breast of over 100 µM.

Regarding `COC(=O)c1ccc(NCc2cc(O)c3ccccc3c2O)cc1`, the TGI with HCT-116 colon was 38.4 µM; with SR leukemia, 21.7 µM; with MALME-3M melanoma, 5.95 µM; in the experiment with OVCAR-5 ovarian, 50.9 µM; in the experiment with NCI-H522 lung, 43.8 µM; in the experiment with SNB-19 CNS, over 81.8 µM. Besides, the concentration for total growth inhibition (TGI) with MDA-MB-435 turned out to be 4.63 µM; in the experiment on SW-620 colon, 32.3 µM; with SK-MEL-5 melanoma, 3.15 µM; in the experiment with MOLT-4 leukemia, 9.73 µM; with CCRF-CEM leukemia, 16.3 µM; in the experiment on OVCAR-3 ovarian, 28.2 µM. Also, the total growth inhibition concentration (TGI) with RPMI-8226 leukemia is 15.1 µM; in the experiment on SF-268 CNS, over 73.1 µM; in the experiment with RXF 393 renal, 48.9 µM; in the experiment on MCF7 breast it was 21.3 µM; with OVCAR-4 ovarian, 25.9 µM; with DU-145 prostate, 30.3 µM. The total growth inhibition concentration (TGI) with MDA-MB-231 breast was 6.02 µM.

Usually TGI stands for the concentration at which net growth stops. The low end stands for greater sensitivity of the cells, the high end for lower sensitivity of the cells.

For the origin of these results see PubChem BioAssay (NCI).
